Laboratory results taken from the supplement of paper PMC5770543.
± gives the standard deviation.

Legend:
[1] = target: Toxoplasma gondii RH tachyzoites; assay: EC50 growth inhibition (48 h luciferase)
[2] = tested on: Plasmodium falciparum 3D7; assay: % inhibition of schizont-to-ring transition vs DMSO; higher = more inhibition
Summary of the method: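 Schizont-to-ring transition inhibition is the formation of new rings relative to vehicle controls. Tightly synchronised P. falciparum schizonts at about 40–42 hours post-invasion (1% parasitemia, 2.5% hematocrit, AlbuMAX-supplemented RPMI) were treated with compound at 1, 3 or 10 µM, alongside vehicle and positive controls. After glutaraldehyde fixation, Triton permeabilisation and Hoechst 33342 staining, at least 100,000 events were counted by flow cytometry, and values are the mean of three experiments.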

[3] = tested on: Plasmodium falciparum 3D7; assay: EC50 growth inhibition (60 h, SYBR Green); details: stage: ring-stage start
[4] = tested on: Toxoplasma gondii RH tachyzoites; assay: % growth inhibition vs DMSO (48 h luciferase); higher = more inhibition; details: 10 µM
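For % growth inhibition vs DMSO (48 h luciferase) in this document: tested in triplicate wells of 96-well plates on confluent HFF monolayers, with 1% DMSO wells as negative control in four replicates.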

SMILES	EC50 growth inhibition [1]	% inhibition of schizont-to-ring transition ([2]; 1 µM)	% inhibition of schizont-to-ring transition ([2]; 3 µM)	% inhibition of schizont-to-ring transition ([2]; 10 µM)	EC50 growth inhibition [3]	% growth inhibition [4]
Cc1ccc(NC(=O)Nc2cccc(Cl)c2)cc1F	1620 nM	< 0%	2.62%	34.3%	6570 nM	98.51 ± 0.27%
CC1CC2=C(CC1CNCCCN(C)C)C(C)(C)CCC2 (stereo not drawn)	3170 nM	9.39%	52.2%	73.9%	618 nM	99.59 ± 0.27%
CC(C)(C)CC(C)(C)NCC(O)COc1ccc(Cl)cc1Cl (stereo not drawn)	2050 nM	22.6%	40.4%	78.1%	576 nM	99.763 ± 0.02%
CN(C)c1ccc(C=Cc2nc(=O)c3ccccc3o2)cc1	264 nM	44.1%	60.6%	70.1%	522 nM	99.12 ± 0.036%
CCOc1ccc2nc(C)cc(Nc3ccc(N(C)C)cc3)c2c1	1440 nM	44.9%	65.7%	69.3%	410 nM	98.02 ± 0.4%
COc1ccc(C2NCCc3c2[nH]c2ccccc32)cc1CN1CCN(c2ccc(F)cc2)CC1 (stereo not drawn)	4880 nM	26.9%	62.9%	77.3%	468 nM	99.96 ± 0.41%
COCCNC(=O)c1ccc(OC2CCN(Cc3ccc(F)c(F)c3)CC2)c(Cl)c1	270 nM	10.5%	23.7%	52.4%	1250 nM	97.36 ± 0.96%
COc1ccc2c(=O)cc(C(Cl)(Cl)Cl)oc2c1	1130 nM	37.9%	45%	55.2%	2900 nM	84.4 ± 9.2%
CCOc1ccc(Nc2c3ccccc3nc3ccccc23)cc1	884 nM	45.1%	58.5%	68.8%	529 nM	100.1 ± 0.26%
O=C(Nc1ccc(N2CCN(Cc3ccccc3)CC2)cc1)c1cccs1	183 nM	22.9%	21.2%	39.3%	1870 nM	91.82 ± 0.81%
CCOc1ccc(/C=C/c2nc(=O)c3ccccc3o2)cc1	21.7 nM	13.3%	41.5%	69.3%	657 nM	97.94 ± 0.17%
COc1ccc(Nc2cc(C)nc(NCc3ccccc3)n2)cc1	653 nM	30.2%	34.6%	60%	115 nM	98.67 ± 0.18%
N=c1n(CCN2CCCCC2)c2ccccc2n1CC(O)c1cccc(Br)c1 (stereo not drawn)	4580 nM	< 0%	35.2%	64%	624 nM	85.2 ± 2.2%
CCOC(=O)C1=C(c2ccccc2)N=c2sc(=Cc3cc(C)n(-c4ccc(F)cc4)c3C)c(=O)n2C1c1cccc(OC)c1OC (stereo not drawn)	1500 nM	0.392%	3.17%	14.4%	493 nM	92.3 ± 2%
CN(C)CCCNc1c2ccccc2nc2ccccc12	1480 nM	28.1%	37.7%	40.7%	92.8 nM	100.3 ± 0.38%
CCCCCCc1cc(O)c2c3c(c(=O)oc2c1)CCC(C)C3 (stereo not drawn)	471 nM	18.6%	34.9%	52.4%	3410 nM	99.37 ± 0.72%
CCOC(=O)c1cnc2ccc(OC)cc2c1NCc1ccccc1	1400 nM	42%	45.3%	59.1%	6780 nM	97.7 ± 1.4%
O=C(NCCCN1CCC(N2CCCCC2)CC1)C1=Cc2cc(Br)ccc2OC1	2690 nM	27%	57.9%	66.7%	348 nM	88.9 ± 1.1%
COc1ccc(Nc2nc(N/N=C/c3ccc(O)cc3)nc(Nc3ccc([N+](=O)[O-])cc3)n2)cc1	2630 nM	20.8%	44%	63%	1100 nM	100.2 ± 0.27%
CCN(CC)CCn1c(=N)n(CC(O)c2ccc(Cl)c(Cl)c2)c2ccccc21 (stereo not drawn)	1310 nM	51%	73.3%	78.2%	267 nM	85.7 ± 6.1%
CCCCCCn1c(=N)n(CC(O)COc2cccc(C)c2)c2ccccc21 (stereo not drawn)	2090 nM	7.26%	18.9%	72.6%	1130 nM	99.65 ± 0.38%
O=C(Nc1ccc(N2CCCCC2)c(Cl)c1)c1ccc(Br)o1	7400 nM	29.7%	39.7%	53%	812 nM	82.4 ± 6.4%
COc1ccc(C2Sc3ccccc3N=C3C2=C(O)c2ccccc23)cc1 (stereo not drawn)	963 nM	< 0%	1.15%	31.1%	1180 nM	98.68 ± 0.16%

SMILES	EC50 growth inhibition [1]	% inhibition of schizont-to-ring transition ([2]; 1 µM)	% inhibition of schizont-to-ring transition ([2]; 3 µM)	% inhibition of schizont-to-ring transition ([2]; 10 µM)	EC50 growth inhibition [3]	% growth inhibition [4]
CCOc1ccc(-c2nonc2NC(=O)c2cccc(C)c2)cc1OCC	1620 nM	81.4%	80%	78.5%	374 nM	96.5 ± 1.9%
O=C(Cc1ccccc1)NC(c1ccc(Cl)cc1)c1c(O)ccc2ccccc12 (stereo not drawn)	1020 nM	0.685%	26.1%	67.8%	1880 nM	100.2 ± 0.43%
Nc1nc(Nc2cccc(F)c2)nc2ccccc12	8210 nM	15.3%	31.5%	62.7%	1030 nM	100.5 ± 0.22%
COc1cc(C(=O)ON=C(N)Cc2cccc3ccccc23)cc(OC)c1OC	836 nM	7.84%	57%	73.7%	218 nM	99.01 ± 0.4%
CCOC(=O)c1cn(CC)c2cc(N(C)CCc3ccc(OC)c(OC)c3)c(F)cc2c1=O	910 nM	36.8%	60.5%	66.7%	210 nM	97.69 ± 0.15%
O=c1nc(C=Cc2ccc(Br)cc2)oc2ccccc12	116 nM	15.3%	24.2%	54%	1770 nM	99.06 ± 0.14%
Cc1sc(NC(=O)c2ccco2)c(C(c2cccnc2)N2CCC(Cc3ccccc3)CC2)c1C (stereo not drawn)	1120 nM	6.59%	41.7%	62.4%	833 nM	99.83 ± 0.14%
Cc1ccc(C2CC(C(F)(F)F)n3nc(C(=O)N4CCN(C(c5ccccc5)c5ccccc5)CC4)cc3N2)cc1 (stereo not drawn)	1660 nM	< 0%	< 0%	35.3%	2040 nM	99.677 ± 0.058%
CCCc1c(C)nc2ccccc2c1O	803 nM	8.03%	21.8%	46.6%	1010 nM	87.69 ± 0.86%
COc1cc2c(cc1OC)C1=NNC(=O)C1=NC(C)(C)C2	3260 nM	14.2%	25.3%	63.4%	1790 nM	80.4 ± 1.2%
Oc1ccc2ccccc2c1CNc1nc2ccccc2[nH]1	430 nM	41.7%	57.8%	70.5%	2930 nM	95.1 ± 1.9%
O=C(NCC1Cc2cccc(-c3ccncc3)c2O1)c1csc2c1CCCC2 (stereo not drawn)	845 nM	9.1%	14.2%	20.6%	4480 nM	94.12 ± 0.48%
Oc1ccc(Br)cc1CN1CCN(Cc2ccc(Cl)cc2)CC1	6610 nM	16.2%	45.5%	68.8%	1090 nM	91.5 ± 3.5%
COc1cccc(Nc2nc(NCCO)c3ccccc3n2)c1	1090 nM	39.7%	60.8%	65.6%	456 nM	97.5 ± 1.6%
CCc1ccc(Nc2cc(C)c3ccc(O)cc3n2)cc1	3050 nM	58.8%	82.3%	80.4%	286 nM	97.8 ± 1.4%
CC(Oc1ccc(NC(=O)c2cccs2)cc1)C(=O)c1ccc(Cl)cc1 (stereo not drawn)	257 nM	17.7%	30.4%	47.3%	462 nM	98.06 ± 0.7%
O=C(Nc1ccc(CN2CCOCC2)cc1)c1ccc(-c2cc(Cl)ccc2Cl)o1	5590 nM	5.81%	22.5%	42.6%	1230 nM	81.1 ± 4.3%
Cc1ccc(Cl)cc1N1CCN(CCCNC(=O)C2CCN(c3nc4ccccc4[nH]3)CC2)CC1	3240 nM	37.8%	50.8%	60.5%	920 nM	98.63 ± 0.9%
O=C(Nc1ccc(Cl)cc1C(=O)Nc1ccncc1)c1ccc(Cl)cc1Cl	3950 nM	3.75%	32.4%	62.5%	1280 nM	80.8 ± 4.7%
CCOC(=O)c1cnc2ccc(Cl)cc2c1NCCCN(C)C	2340 nM	0.181%	23.3%	54.9%	1020 nM	82.2 ± 2.8%
COc1ccc(C(O)(CCC(C)C)C(CN2CCOCC2)c2ccc(Cl)cc2)cc1 (stereo not drawn)	4870 nM	8.88%	11.2%	32.8%	2090 nM	100.9 ± 0.49%
CCCCNc1nc(NC(C)(C)C)nc(NC(C)(C)C)n1	603 nM	12.2%	25.9%	66.4%	2760 nM	93.8 ± 2.5%
COc1ccc(-c2nc3cc(Cc4ccc5[nH]c(-c6ccc(OC)cc6)nc5c4)ccc3[nH]2)cc1	1470 nM	50.4%	65.3%	68.3%	185 nM	100 ± 0.58%

SMILES	EC50 growth inhibition [1]	% inhibition of schizont-to-ring transition ([2]; 1 µM)	% inhibition of schizont-to-ring transition ([2]; 3 µM)	% inhibition of schizont-to-ring transition ([2]; 10 µM)	EC50 growth inhibition [3]	% growth inhibition [4]
CCCCCCC(O)(c1ccc(F)cc1)C(CN1CCOCC1)c1ccccc1 (stereo not drawn)	3570 nM	37.5%	40.1%	40.3%	2160 nM	100.1 ± 0.26%
O=C1c2ccc3c4c(ccc(c24)C(=O)N1CCCCO)C(=O)N(CCCCO)C3=O	421 nM	9.23%	16.9%	64.2%	4810 nM	99.55 ± 0.29%
CCCOCc1cc(CN2CCN(c3cccc(Cl)c3)CC2)c(O)c2ncccc12	1500 nM	6.74%	41.8%	52.5%	3790 nM	99.61 ± 0.24%
O=C(NC(c1ccccc1)c1ccc2cccnc2c1O)c1ccccc1 (stereo not drawn)	770 nM	13.5%	35.6%	53.7%	3660 nM	99.71 ± 0.23%
O=C1c2ccccc2C2=Nc3ccccc3SC(c3cccc(F)c3)C12 (stereo not drawn)	916 nM	15.1%	29%	37.5%	283 nM	99.31 ± 0.18%
Cc1sc(NC(=O)c2ccccc2)c(C(c2cccs2)N2CCN(c3ccccc3)CC2)c1C (stereo not drawn)	550 nM	5.65%	10.7%	36.5%	1930 nM	88.7 ± 5.2%
FC(F)(F)c1cccc(Nc2nc3ccccc3nc2Nc2cccc(C(F)(F)F)c2)c1	46.4 nM	< 0%	15.6%	42.7%	6400 nM	99.49 ± 0.16%
CCOC(=O)c1c(C)n(-c2ccccc2)c2ccc(OC(=O)c3cc(OC)c(OC)c(OC)c3)cc12	6360 nM	11.1%	16.1%	27.7%	1600 nM	96.58 ± 0.65%
COc1ccc(-c2nonc2NC(=O)c2cccc(Cl)c2)cc1OC	35.3 nM	36.5%	56.1%	71%	1170 nM	84.3 ± 0.96%
c1ccc2c(NCCc3c[nH]c4ccccc34)c3ccccc3nc2c1	170 nM	57.4%	60.8%	71.5%	201 nM	100.1 ± 0.54%
OC(CNCc1ccccc1)Cn1c2ccccc2c2ccccc21 (stereo not drawn)	286 nM	37.8%	43%	65.5%	2200 nM	48.3 ± 2%
O=c1nc(C=Cc2ccc(Cl)cc2)oc2ccccc12	32.4 nM	16.8%	24.1%	56.2%	999 nM	94.2 ± 2.2%
O=C(Nc1cccc(C(F)(F)F)c1)c1cc(Cl)ccc1O	9.2 nM	< 0%	20.2%	51.6%	3770 nM	99.77 ± 0.14%
CSC1=NC(=Nc2c(C)cccc2C)C2(CCC(C(C)(C)C)CC2)N1c1ccc(Cl)cc1 (stereo not drawn)	775 nM	12.4%	26.3%	49.9%	869 nM	99.94 ± 0.22%
Cc1ccccc1OCCSc1nc2ccc(NC(=O)c3cccs3)cc2s1	1160 nM	10.7%	28.6%	55.5%	3730 nM	99.844 ± 0.082%
CCCCCn1c(=N)n(CC(O)COc2cccc(C)c2)c2ccccc21 (stereo not drawn)	1770 nM	8.72%	13.3%	61.9%	1940 nM	99.47 ± 0.32%
Cc1ccc2nc(C)cc(Nc3cccc(C(F)(F)F)c3)c2c1	465 nM	2.29%	31.8%	62.9%	894 nM	99.29 ± 0.18%
COc1cccc(NC(=O)Cn2c(C)c(C#N)c3ccccc32)c1	905 nM	56.8%	75.8%	77.4%	231 nM	94.39 ± 0.68%
Clc1cc(Br)ccc1-c1ccc(CNCC2CCNCC2)o1	207 nM	46%	50.9%	74.4%	763 nM	99.53 ± 0.77%
COCCNCC(O)Cn1c2ccc(Cl)cc2c2cc(Cl)ccc21 (stereo not drawn)	6290 nM	5.35%	32.1%	67.1%	700 nM	99.95 ± 0.13%
COc1ccccc1NC1=C(N2CCCCC2)C(=O)c2ccccc2C1=O	4950 nM	38.5%	61.8%	64.7%	35.9 nM	90.3 ± 3.8%
COc1ccc(C2c3ccc4ccccc4c3Oc3ncn(CCCN(C)C)c(=N)c32)cc1 (stereo not drawn)	2650 nM	22.6%	63.4%	77.4%	319 nM	100.2 ± 0.12%
